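Step 1: Grow cells in 96-well plates. Step 2: Expose to compound for 48 hours at 5 concentrations. Step 3: Interpolate endpoints linearly; if unreached, use highest concentration. GI50 = concentration required for 50% inhibition of growth. The concentration for full growth arrest is given as TGI.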 Where a SMILES comes first, the peptide text is derived from it. The star is where a group is joined. Fmoc = O=C(OCC1c2ccccc2-c2ccccc21)*; Boc = CC(C)(C)OC(=O)*
Key:
Test in all cases: DTP human tumour cell line panel, 48 h
SN12C renal = tested on: SN12C renal
786-0 renal = tested on: 786-0 renal
MDA-N = tested on: MDA-N
COLO 205 colon = tested on: COLO 205 colon
SK-MEL-28 melanoma = tested on: SK-MEL-28 melanoma
K-562 leukemia = tested on: K-562 leukemia
TK-10 renal = tested on: TK-10 renal
SW-620 colon = tested on: SW-620 colon
SF-295 CNS = tested on: SF-295 CNS

Compound | TGI (SN12C renal) [µM] | TGI (786-0 renal) [µM] | TGI (MDA-N) [µM] | TGI (COLO 205 colon) [µM] | TGI (SK-MEL-28 melanoma) [µM] | TGI (K-562 leukemia) [µM] | TGI (TK-10 renal) [µM] | TGI (SW-620 colon) [µM] | TGI (SF-295 CNS) [µM] | GI50 (SN12C renal) [µM] | GI50 (COLO 205 colon) [µM] | GI50 (SK-MEL-28 melanoma) [µM] | GI50 (K-562 leukemia) [µM] | GI50 (TK-10 renal) [µM] | GI50 (SW-620 colon) [µM] | GI50 (SF-295 CNS) [µM]
O=C1C=C(OCCCCl)C(=O)c2c(O)ccc(O)c21 | 1.12 | 2.94 | 0.349 | 0.642 | 2.08 | 5.86 | 3.46 | 2.3 | 3.2 | – | – | – | – | – | – | –
COC(=O)C1=C(C(=O)OC)SC2(S1)C(C(=O)OC)=C(C(=O)OC)Sc1c2ssc1=Nc1ccc(Cl)cc1 | 1.8 | 1.69 | 1.69 | 2.04 | 3.66 | 5.78 | 2.69 | – | 5.34 | – | – | – | – | – | – | –
COc1ccc(C2CC3(c4ccccc4)ON=C(c4ccccc4)N3c3ccccc3S2)cc1 (stereo unspecified) | > 100 | > 100 | > 100 | > 100 | > 100 | – | > 100 | > 100 | > 100 | – | – | – | – | – | – | –
O=C(OCc1ccccc1)N(CCCCN(CCCNCc1ccccc1)C(=O)OCc1ccccc1)CCCNCc1ccccc1 | 0.886 | 1.29 | 0.983 | 0.33 | 3.08 | – | 3.43 | 0.39 | > 100 | – | – | – | – | – | – | –
O=c1[nH]c(=O)n(C2OC(CO)C(O)C2O)cc1Oc1ccccc1 (stereo unspecified) | > 100 | > 100 | > 100 | > 100 | > 100 | > 100 | > 100 | > 100 | > 100 | – | – | – | – | – | – | –
COC(=O)CCC(C)C1CCC2C3C(C[C@H](OC(C)=O)[C@]12C)[C@@]1(C)CCC2(C[C@H]1C[C@H]3OC(C)=O)OOC1(CC[C@]3(C)C4C[C@H](OC(C)=O)[C@]5(C)C(C(C)CCC(=O)OC)CCC5C4[C@H](OC(C)=O)C[C@@H]3C1)OO2 (stereo partly specified) | > 100 | > 100 | > 100 | > 100 | > 100 | > 100 | > 100 | > 100 | > 100 | – | – | – | – | – | – | –
CC(=O)OC12c3ccccc3-c3ccccc3C1C1C(=O)OC(=O)C12 (stereo unspecified) | > 10 | > 10 | > 10 | > 10 | > 10 | > 10 | > 10 | > 10 | > 10 | – | – | – | – | – | – | –
O=c1c2cc(Cl)cc(Cl)c2oc2nc3n(c(=O)c12)CCCS3 | > 100 | > 100 | > 100 | > 100 | > 100 | > 100 | > 100 | > 100 | > 100 | – | – | – | – | – | – | –
COC(=O)C1=C(C)C=C(N2CCOCC2)C(C(=O)OC)C1c1ccccc1 (stereo unspecified) | > 10 | > 10 | > 10 | > 10 | > 10 | > 10 | > 10 | > 10 | > 10 | – | – | – | – | – | – | –
Fc1ccc(-c2sc(-c3cccs3)cc2Cc2cccs2)cc1 | > 100 | > 100 | – | > 100 | > 100 | > 100 | > 100 | > 100 | > 100 | – | – | – | – | – | – | –
COc1cc(-c2[o+]c3cc(O)cc(O)c3cc2O)cc(O)c1O | > 100 | > 100 | > 100 | > 100 | > 100 | > 100 | > 100 | > 100 | > 100 | – | – | – | – | – | – | –
CC(C)(C)OC(=O)NCCCCC(NC(=O)C(Cc1c[nH]c2ccccc12)NC(=O)OCC1c2ccccc2-c2ccccc21)C(=O)N1CCCC1C(=O)NCC(N)=O (stereo unspecified) (Fmoc-WK(Boc)PG-NH2; configuration not given here) | > 100 | > 100 | > 100 | > 100 | > 100 | > 100 | > 100 | > 100 | > 100 | – | – | – | – | – | – | –
c1ccc2c(c1)CCc1[nH]c3c(c1-2)-c1ccccc1CC3 | > 100 | > 100 | > 100 | > 100 | > 100 | > 100 | > 100 | > 100 | > 100 | – | – | – | – | – | – | –
COc1ccc(C2C3CCc4ccccc4C3=NN2S(=O)(=O)c2ccc(/C=C/C(=O)O)cc2)cc1 (stereo unspecified) | > 100 | 15.9 | – | 7.43 | – | 15.7 | > 100 | > 100 | 9.08 | – | – | – | – | – | – | –
O=C1CC(=O)NC(=NNS(=O)(=O)c2ccccc2)N1 | > 100 | > 100 | > 100 | > 100 | > 100 | > 100 | > 100 | > 100 | > 100 | – | – | – | – | – | – | –
CC(OC(=O)C(CC(=O)OC(C)(C)C)NC(=O)OC(C)(C)C)C(=O)OCc1ccccc1 (stereo unspecified) | > 100 | > 100 | > 100 | > 100 | > 100 | > 100 | > 100 | > 100 | > 100 | – | – | – | – | – | – | –
CC1CCC2(CC1)NC1=C(CC(C)CC1)C1=C2CC(C)CC1 (stereo unspecified) | – | 39.1 | > 100 | 49.8 | 35 | 42.9 | 89.2 | 37.7 | 36.9 | – | – | – | – | – | – | –
COC(=O)/C=C/C1(O)C=CC(=O)C=C1 | 3.32 | 5.36 | 4.5 | 23.4 | > 19.8 | > 100 | 16.4 | – | 38.3 | – | – | – | – | – | – | –
CN1CCN(Cc2ccc(NC(=O)c3cccc(C#Cc4cnc(N)c5ncccc45)c3F)cc2C(F)(F)F)CC1 | 1.59 | – | – | 6.07 | 1.59 | 0.733 | 12.9 | 1.71 | 14.7 | 0.817 | 1.17 | 0.848 | 0.005 | 5.67 | 0.62 | 7.06
CSC12c3cc(C)n(-c4ccccc4)c3CC(C)(C)CN1C(=O)C2Oc1ccccc1 (stereo unspecified) | > 100 | > 100 | – | > 100 | > 100 | > 100 | – | > 100 | > 100 | – | – | – | – | – | – | –
Cc1cc(S(=O)(=O)/N=C(/[N-]S(=O)(=O)c2ccc(Cl)cc2)[n+]2ccc(N(C)C)cc2)c(SCC(=O)O)cc1Cl | > 100 | > 100 | – | > 100 | – | > 100 | > 100 | > 100 | > 100 | – | – | – | – | – | – | –
O=c1cn[nH]c(=S)n1/N=C/c1c[nH]c2ccccc12 | – | > 100 | > 100 | > 100 | > 100 | > 100 | – | > 100 | > 100 | – | – | – | – | – | – | –
CCOC1Oc2ccccc2-c2nc(SC)ncc21 (stereo unspecified) | > 100 | > 100 | > 100 | > 100 | – | – | > 100 | > 100 | > 100 | – | – | – | – | – | – | –
